Consider eleven compounds from ChEMBL document CHEMBL1201862, “PubChem BioAssay data set” (2004).

Each structure is given as a SMILES string. Structures can show the parent of a compound that is named as a salt.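 All cell lines were grown in 96-well plates and treated with compound for 48 hours. The concentration for 50% growth inhibition is given as GI50.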 Activity calls are given as the source filed them. Rule as the data show it: active = GI50 up to about 1.1 µM and inactive = higher.

Among the test systems are SK-MEL-28; HCC 2998; EKVX; UACC-62; SNB-19; HCT-116; K562; SNB-75; HOP-62; U-251; COLO 205; NCI-H23; SR; KM12; OVCAR-8; SW-620; CCRF-CEM; NCI-H522; A498; Malme-3M.
Assay in all cases: NCI-60 cell line screen, 48 h

For `NCc1ccccc1-c1c2nc(c(-c3ccccc3CN)c3ccc([nH]3)c(-c3ccccc3CN)c3nc(c(-c4ccccc4CN)c4ccc1[nH]4)C=C3)C=C2`, the GI50 in the assay with SK-MEL-28 was 19 µM (inactive); with HCC 2998, 25.9 µM (inactive); in the assay on EKVX, 23.8 µM (inactive); with UACC-62, 24.9 µM (inactive); in the assay with SNB-19 it was 18.6 µM (inactive); in the assay with HCT-116, 13.7 µM (inactive). The GI50 with K562 is 14.5 µM (inactive); in the assay on SNB-75, 5.96 µM (inactive); in the assay with HOP-62, 22.1 µM (inactive); with U-251, 18.5 µM (inactive); with COLO 205, 29.8 µM (inactive); in the assay on NCI-H23, 21.8 µM (inactive). In addition, the GI50 with SR was > 10 µM (inactive); in the assay with KM12, 20 µM (inactive); in the assay on OVCAR-8, 37 µM (inactive); in the assay with SW-620, 34.1 µM (inactive); in the assay on CCRF-CEM it was 4.17 µM (inactive).

As to `CCCCc1oc2ccccc2c1C(=O)c1cc(I)c(OCCN(CC)CC)c(I)c1` [AMIODARONE HYDROCHLORIDE], the GI50 in the assay with NCI-H522 was 5.06 µM (inactive); in the assay on SK-MEL-28 it was 4.8 µM (inactive); with HCC 2998, 3.85 µM (inactive); in the assay with EKVX, 9.79 µM (inactive); in the assay with UACC-62, 5.28 µM (inactive); with SNB-19, 6.21 µM (inactive). The GI50 in the assay on A498 was 5.02 µM (inactive); in the assay with HCT-116, 4.17 µM (inactive); in the assay with K562 it was 3.88 µM (inactive); in the assay on SNB-75 it was 7.59 µM (inactive); with Malme-3M, 4.89 µM (inactive); in the assay with HOP-62, 10.6 µM (inactive). The GI50 is 4.16 µM (inactive) in the assay with U-251; 4.21 µM (inactive) with COLO 205; 6.15 µM (inactive) in the assay on NCI-H23; 5.51 µM (inactive) in the assay with KM12; 4.59 µM (inactive) in the assay with SW-620; 4.54 µM (inactive) with CCRF-CEM.

Consider `CSc1ccccc1P(c1ccccc1SC)c1ccccc1SC`, for which the GI50 in the assay with SK-MEL-28, in the assay with EKVX, in the assay with UACC-62, in the assay on SNB-19, in the assay on A498 and with HCT-116 was > 100 µM (inactive) throughout. In addition, the GI50 was > 100 µM (inactive) with K562; > 100 µM (inactive) with Malme-3M; 25.4 µM (inactive) with HOP-62; 31.6 µM (inactive) with U-251; > 100 µM (inactive) with NCI-H23; > 100 µM (inactive) in the assay with SR. In addition, the GI50 in the assay with KM12, with OVCAR-8, in the assay on SW-620 and in the assay with CCRF-CEM was > 100 µM (inactive) throughout.

Regarding `O=C1CC2CC3OC3[C@H]3c4cc5c(cc4C(=O)N1C23)OCO5` (some centres not stated), the GI50 with NCI-H522, in the assay with SK-MEL-28, in the assay with HCC 2998, in the assay on EKVX, with UACC-62 and with SNB-19 was > 100 µM (inactive) each time. Besides, the GI50 in the assay on HCT-116, in the assay on K562, in the assay with Malme-3M, with HOP-62, in the assay on COLO 205 and in the assay on SR was > 100 µM (inactive) in each case. Moreover, the GI50 in the assay on KM12, in the assay with OVCAR-8, in the assay with SW-620 and with CCRF-CEM was > 100 µM (inactive) throughout.

For `CCOC(=O)c1cc(C(=O)O)c(=O)n2c1[nH]c1ccccc12`, the GI50 in the assay on NCI-H522 was 26.7 µM (inactive); in the assay on SK-MEL-28, 26.2 µM (inactive); with HCC 2998 it was > 100 µM (inactive); in the assay on EKVX it was > 100 µM (inactive); with UACC-62, 44.5 µM (inactive); in the assay with SNB-19, 44.3 µM (inactive). Further, the GI50 with A498 was > 100 µM (inactive); in the assay with HCT-116 it was 40.7 µM (inactive); in the assay on K562, > 100 µM (inactive); with SNB-75, 31.8 µM (inactive); with Malme-3M, > 100 µM (inactive); in the assay with HOP-62 it was > 100 µM (inactive). Further, the GI50 in the assay with U-251 is 83.4 µM (inactive); with COLO 205, > 100 µM (inactive); in the assay with NCI-H23 it was 26.9 µM (inactive); in the assay on KM12, > 100 µM (inactive); with OVCAR-8, > 100 µM (inactive); in the assay on SW-620 it was > 100 µM (inactive). The GI50 with CCRF-CEM is > 100 µM (inactive).

In the case of `O=[N+]([O-])c1ccc(S[C@@H]2[C@H]3c4c(-c5ccccc5)[nH]c(-c5ccccc5)c4[C@@H]2C[C@H]3Cl)cc1`, the GI50 in the assay with NCI-H522 was 2.9 µM (inactive); in the assay with SK-MEL-28 it was 18.1 µM (inactive); in the assay with UACC-62 it was 2.83 µM (inactive); in the assay with SNB-19, 4.6 µM (inactive); with A498 it was 4.82 µM (inactive); in the assay with HCT-116, 1.76 µM (inactive). Also, the GI50 in the assay on SNB-75 was 2.15 µM (inactive); in the assay on Malme-3M, 10.6 µM (inactive); with HOP-62 it was 3.56 µM (inactive); in the assay on U-251, 4.17 µM (inactive); in the assay with COLO 205 it was 6.17 µM (inactive); in the assay on NCI-H23, 2.38 µM (inactive). The GI50 was 1.14 µM (inactive) in the assay on SR, 3.05 µM (inactive) in the assay on KM12, 4.38 µM (inactive) in the assay on OVCAR-8 and 3.37 µM (inactive) with SW-620.

Regarding `COc1c(OC)c(OC)c2c(c1OC)c(=O)c1ccccc1n2C` [MELICOPICINE], the GI50 with NCI-H522, in the assay on SK-MEL-28, in the assay with HCC 2998, in the assay on EKVX, with UACC-62 and with SNB-19 was > 100 µM (inactive) each time. The GI50 in the assay on A498, with HCT-116, in the assay on K562, with SNB-75, in the assay with HOP-62 and in the assay on U-251 was > 100 µM (inactive) each time. The GI50 in the assay on COLO 205 was > 100 µM (inactive); in the assay with NCI-H23, > 100 µM (inactive); in the assay on SR it was 6.65 µM (inactive); in the assay on KM12 it was 12.9 µM (inactive); with OVCAR-8, > 100 µM (inactive); with SW-620, > 100 µM (inactive). Also, in the assay on CCRF-CEM, the GI50 was > 10 µM (inactive).

For the compound `Nc1nnc(O)c2c1c(I)cn2C1OC(CO)C(O)C1O` (configuration not stated), the GI50 was 1.18 µM (inactive) in the assay on SK-MEL-28; 0.208 µM (active) in the assay with HCC 2998; 1.3 µM (inactive) with EKVX; 3.12 µM (inactive) in the assay with UACC-62; 7.93 µM (inactive) in the assay on SNB-19; 5.56 µM (inactive) in the assay on A498. The GI50 is 0.232 µM (active) with HCT-116; 0.75 µM (active) in the assay with K562; 0.718 µM (active) in the assay on SNB-75; 0.778 µM (active) with Malme-3M; 2.5 µM (inactive) in the assay with HOP-62; 1.09 µM (active) in the assay with U-251. Further, the GI50 in the assay on COLO 205 is 0.708 µM (active); in the assay on NCI-H23, 0.5 µM (active); in the assay on SR it was 0.0466 µM (active); with KM12, 0.393 µM (active); in the assay with OVCAR-8 it was 0.105 µM (active); in the assay on SW-620, 0.0904 µM (active). Also, the GI50 with CCRF-CEM is 0.129 µM (active).

In the case of `CCCCOc1ccc2c(c1)CC[C@@H]1[C@@H]2CC[C@]2(C)C(=O)N(CCCC)C(=O)C[C@@H]12`, the GI50 in the assay with NCI-H522, with HCC 2998, in the assay with UACC-62, in the assay on SNB-19, with A498 and with HCT-116 was > 100 µM (inactive) in each case. Moreover, the GI50 was 6.37 µM (inactive) with K562; > 100 µM (inactive) in the assay on SNB-75; > 100 µM (inactive) in the assay on Malme-3M; > 100 µM (inactive) in the assay on HOP-62; > 100 µM (inactive) with U-251; 91.8 µM (inactive) with COLO 205. For the same compound, the GI50 in the assay with NCI-H23 was > 100 µM (inactive); with SR, > 100 µM (inactive); in the assay with KM12 it was > 100 µM (inactive); in the assay on OVCAR-8, > 100 µM (inactive); with CCRF-CEM, 44.6 µM (inactive).

With `O=C(/C=C1\Nc2ncccc2N=C1CC(=O)c1ccccc1)c1ccccc1`, the GI50 in the assay on NCI-H522 is 11 µM (inactive); in the assay on SK-MEL-28, 32.3 µM (inactive); with UACC-62, 2.84 µM (inactive); in the assay on SNB-19 it was 7.69 µM (inactive); with A498, 7.35 µM (inactive); in the assay on K562, 5.11 µM (inactive). For the same compound, the GI50 with SNB-75 is 20.4 µM (inactive); in the assay with Malme-3M, 37.4 µM (inactive); in the assay with HOP-62, 0.679 µM (active); with U-251, 3.24 µM (inactive); in the assay on COLO 205 it was 4.97 µM (inactive); in the assay with NCI-H23 it was 23.1 µM (inactive). Moreover, the GI50 in the assay on SR was 4.66 µM (inactive); in the assay on KM12, 6.43 µM (inactive); in the assay with OVCAR-8 it was 5.93 µM (inactive); in the assay with SW-620, 5.52 µM (inactive); in the assay with CCRF-CEM, 2.49 µM (inactive).

For the compound `CC(C)(C)N(Cc1ccoc1)C(=O)/C=C\[S+]([O-])c1ccccc1` (configuration not stated), the GI50 in the assay with NCI-H522 is 17.5 µM (inactive); in the assay on SK-MEL-28 it was 21.8 µM (inactive); with HCC 2998 it was 18.5 µM (inactive); with EKVX, 22.8 µM (inactive); in the assay with UACC-62, 20 µM (inactive); with SNB-19 it was 28.3 µM (inactive). The GI50 was 31 µM (inactive) in the assay with A498; 16.6 µM (inactive) in the assay on HCT-116; 26.6 µM (inactive) in the assay with K562; 16.6 µM (inactive) in the assay on HOP-62; 15.5 µM (inactive) with U-251; 22.3 µM (inactive) in the assay on COLO 205. Besides, the GI50 in the assay with NCI-H23 was 12.9 µM (inactive); in the assay with SR, 6.44 µM (inactive); with KM12, 16.6 µM (inactive); in the assay with OVCAR-8, 14.4 µM (inactive); in the assay on SW-620, 10.2 µM (inactive); with CCRF-CEM, 3.05 µM (inactive).
